Measurements: patent US11903912B2, “Composition for preventing and treating breast cancer including selenopsammaplin A as active ingredients” (Seoul National University R & DB Foundation, priority 2019, dated 2024)
pIC50: −log10 of the molar value.

Legend:
Type in all cases: cell-based
[1] = tested on: A549 human lung cancer cells; assay: SRB cytotoxicity test, A549; conditions: SRB assay, cultured 3 days
Experimental: (§1) A cytotoxicity test was performed using synthesized selenopsammaplin A and derivatives thereof (Lee S K et al […] Chem Biol Interact 115:215-28).
(§2) The cytotoxicity test was performed on a total of five representative cancer cell lines. The cytotoxicity of each compound was measured using an SRB assay method (human lung cancer cells, A549; human colon cancer cells, HCT116; human breast cancer cells, MDA-MB231; human liver cancer cells, SK-HEP-1; human gastric cancer cells, SNU638).
(§3) Each cell line was sub-cultured once or twice using Roswell Park Memorial Institute (RPMI) medium 1640 (RPMI 1640) or Dulbecco's Modified Eagle's Medium (DMEM) containing 10% fetal bovine serum (FBS) inactivated by heat, 100 units/mL of penicillin, 100 μg/mL of streptomycin, and 250 ng/mL of amphotericin B at 37° C. for 1 week under a 5% CO2 condition. All cells were […] in liquid nitrogen, and then passaged three or more times to be used in the experiment. The effects of compounds on cell growth were measured using a sulforhodamine B (SRB) method (Lee et al (1998) Chemico-Biol Interact 115:215-228).
(§4) Specifically, each human cancer cell line used in the present invention was sub-cultured in an RPMI medium containing 10% FBS, 1% PSF, and the like, and 10 μl of a sample dissolved in 10% DMSO and 190 μl (4-5×10^4 cells/ml) of the cell suspension were added to each well of a 96-well plate and cultured for 3 days. 190 μl of the cell suspension was added to at least 16 wells and cultured for 30 minutes, and used as a zero-day control. The cultured cells were fixed with 10% trichloroacetic acid (TCA) and then stained with an SRB solution, and the staining solution was dissolved with 10 mM Tris-base, and then absorbance at 515 nm was measured. Using the case of culturing in 10% DMSO as a control, cell viability according to each test material treatment was measured using Equation 1 below. Etoposide was used as a positive control. % Viability=(OD(sample)−OD(0-day))/(OD(10% DMSO)−OD(0-day))×100 [Equation 1]
(§5) Assuming that a control not-treated with the sample was set at 100%, the values of sample-treated groups were expressed as percentage with respect to the control, and each test material treatment results were obtained as the mean±SEM of two or three tests. The IC50 value is the concentration of the test material for a 50% survival rate.

[2] = tested on: MDA-MB231 human breast cancer cells; assay: SRB cytotoxicity test, MDA-MB231; conditions: SRB assay, cultured 3 days
Experimental: as §1, §2, §3, §4, §5

[3] = tested on: SK-HEP-1 human liver cancer cells; assay: SRB cytotoxicity test, SK-HEP-1; conditions: SRB assay, cultured 3 days
Experimental: as §1, §2, §3, §4, §5

[4] = tested on: SNU638 human gastric cancer cells; assay: SRB cytotoxicity test, SNU638; conditions: SRB assay, cultured 3 days
Experimental: as §1, §2, §3, §4, §5

[5] = target: T1, DOT1L (Homo sapiens, UniProt Q8TEK3); assay: Inhibition of DOT1L methylation (H3K79) by western blotting; conditions: breast cancer cell line, FIG. 3
T1 construct: based on the finding that DOT1L was overexpressed in the breast cancer cell line; endogenous in cells
T1 sequence (Q8TEK3 whole entry): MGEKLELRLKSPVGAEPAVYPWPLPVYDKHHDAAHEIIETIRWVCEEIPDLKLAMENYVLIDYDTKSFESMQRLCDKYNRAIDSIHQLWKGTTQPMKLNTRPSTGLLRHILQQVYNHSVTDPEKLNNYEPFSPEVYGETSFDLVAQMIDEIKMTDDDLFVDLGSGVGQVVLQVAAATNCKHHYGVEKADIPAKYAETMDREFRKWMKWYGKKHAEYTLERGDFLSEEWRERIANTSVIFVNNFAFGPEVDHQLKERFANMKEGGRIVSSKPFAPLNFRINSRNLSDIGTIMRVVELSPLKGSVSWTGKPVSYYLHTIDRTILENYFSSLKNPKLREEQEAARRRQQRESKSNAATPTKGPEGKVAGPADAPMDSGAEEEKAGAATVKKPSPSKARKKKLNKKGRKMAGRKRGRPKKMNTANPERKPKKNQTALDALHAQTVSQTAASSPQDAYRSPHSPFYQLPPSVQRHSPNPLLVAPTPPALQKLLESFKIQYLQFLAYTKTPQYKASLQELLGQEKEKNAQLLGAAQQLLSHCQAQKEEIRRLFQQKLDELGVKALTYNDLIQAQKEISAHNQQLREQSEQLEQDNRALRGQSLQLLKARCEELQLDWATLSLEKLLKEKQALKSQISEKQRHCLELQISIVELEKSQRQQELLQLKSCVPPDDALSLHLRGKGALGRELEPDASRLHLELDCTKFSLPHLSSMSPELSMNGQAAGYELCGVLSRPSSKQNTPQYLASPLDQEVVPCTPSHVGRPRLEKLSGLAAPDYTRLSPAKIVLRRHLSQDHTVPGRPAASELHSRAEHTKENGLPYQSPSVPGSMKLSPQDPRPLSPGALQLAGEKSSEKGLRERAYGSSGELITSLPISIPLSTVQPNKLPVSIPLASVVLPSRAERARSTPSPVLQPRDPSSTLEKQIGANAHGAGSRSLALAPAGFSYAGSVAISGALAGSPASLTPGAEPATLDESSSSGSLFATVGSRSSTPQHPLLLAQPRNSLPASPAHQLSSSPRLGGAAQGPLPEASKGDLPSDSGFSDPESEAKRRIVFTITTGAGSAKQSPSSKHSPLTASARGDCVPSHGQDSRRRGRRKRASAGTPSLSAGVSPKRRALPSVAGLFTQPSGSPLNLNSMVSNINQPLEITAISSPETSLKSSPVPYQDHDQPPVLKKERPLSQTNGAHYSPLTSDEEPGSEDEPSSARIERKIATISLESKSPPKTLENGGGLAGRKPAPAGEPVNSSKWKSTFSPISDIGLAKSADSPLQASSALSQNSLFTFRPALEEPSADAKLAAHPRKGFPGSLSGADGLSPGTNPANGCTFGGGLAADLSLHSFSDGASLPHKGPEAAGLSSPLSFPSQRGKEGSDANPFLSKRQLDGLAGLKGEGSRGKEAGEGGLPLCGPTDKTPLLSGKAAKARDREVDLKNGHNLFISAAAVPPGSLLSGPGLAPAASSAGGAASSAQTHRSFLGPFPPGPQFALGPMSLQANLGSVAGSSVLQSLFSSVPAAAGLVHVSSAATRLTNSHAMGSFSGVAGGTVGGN
Source text: As confirmed in Example 1, based on the finding that DOT1L was overexpressed in the breast cancer cell line, the effects of the derivatives of the present invention on the methylation of the histone 3 lysine 79 (H3K79) residue, which is an in-vivo target of DOT1L, were examined by western blotting.

[6] = tested on: HCT116 human colon cancer cells; assay: SRB cytotoxicity test, HCT116; conditions: SRB assay, cultured 3 days
Experimental: as §1, §2, §3, §4, §5

| Molecule | pIC50 [1] | pIC50 [2] | pIC50 [3] | pIC50 [4] | inhibitory effect on H3K79 methylation [5] | pIC50 [6] | pIC50 ([1]; A549, 72 h) | pIC50 ([6]; HCT-116, 72 h) | pIC50 ([2]; MDA-MB-231, 72 h) | pIC50 ([3]; SK-HEP1, 72 h) | pIC50 ([4]; SNU-638, 72 h) |
| --- | --- | --- | --- | --- | --- | --- | --- | --- | --- | --- | --- |
| O=C(NCC[Se][Se]CCNC(=O)/C(Cc1ccc(O)c(Br)c1)=N/O)/C(Cc1ccc(O)c(Br)c1)=N/O [Compound 1, (2E,2′E)-N,N′-(diselenediylbis(ethane-2,1-diyl))bis(3-(3-bromo-4-hydroxyphenyl)-2-(hydroxyimino)propanamide)] | 7.52 | 6.80 | 6.68 | 7.70 | excellent |  |  |  |  |  |  |
| O=C(NCC[Se][Se]CCNC(=O)/C(Cc1ccc(F)cc1)=N/O)/C(Cc1ccc(F)cc1)=N/O [Compound 4, (2E,2′E)-N,N′-(diselenediylbis(ethane-2,1-diyl))bis(3-(4-fluorophenyl)-2-(hydroxyimino)propanamide)] | 7.00 | 6.89 | 6.85 | 7.15 |  | 6.96 |  |  |  |  |  |
| O=C(NCC[Se][Se]CCNC(=O)/C(Cc1ccc(Br)cc1)=N/O)/C(Cc1ccc(Br)cc1)=N/O [Compound 8, (2E,2′E)-N,N′-(diselenediylbis(ethane-2,1-diyl))bis(3-(4-bromophenyl)-2-(hydroxyimino)propanamide)] | 6.51 | 6.41 |  | 6.82 |  | 6.77 |  |  |  |  |  |
| COc1cc([C@@H]2c3cc4c(cc3[C@@H](O[C@@H]3O[C@@H]5CO[C@@H](C)O[C@H]5[C@H](O)[C@H]3O)[C@H]3COC(=O)[C@H]23)OCO4)cc(OC)c1O [Etoposide, reference compound] |  |  |  |  |  |  | 6.52 | 5.92 | 5.06 | 6.40 | 6.70 |
| O=C(NCCSSCCNC(=O)/C(Cc1ccc(O)c(Br)c1)=N/O)/C(Cc1ccc(O)c(Br)c1)=N/O [Psammaplin A] | 5.75 | 5.88 | 5.89 | 6.25 |  | 6.21 |  |  |  |  |  |
| (2E,2′E)-N,N′-(diselenediylbis(ethane-2,1-diyl))bis(2-(hydroxyimino)-3-(4-nitrophenyl)propanamide) [Compound 11] | 7.05 | 7.05 | 6.77 | 7.22 | excellent | 7.05 |  |  |  |  |  |
| (2E,2′E)-N,N′-(diselenediylbis(ethane-2,1-diyl))bis(2-(hydroxyimino)-3-(naphthalene-2-yl)propanamide) [Compound 3] | 6.42 | 6.72 | 6.77 | 6.57 |  | 6.92 |  |  |  |  |  |
| (2E,2′E)-N,N′-(diselenediylbis(ethane-2,1-diyl))bis(3,4-dichlorophenyl)-2-(hydroxyimino)propanamide) [Compound 7] | 6.55 | 6.60 | 6.49 | 6.74 |  | 6.28 |  |  |  |  |  |
| (2E,2′E)-N,N′-(diselenediylbis(ethane-2,1-diyl))bis(3-(3,4-difluorophenyl)-2-(hydroxyimino)propanamide) [Compound 5] | 6.48 | 6.38 | 6.57 | 7.30 |  | 6.74 |  |  |  |  |  |
| (2E,2′E)-N,N′-(diselenediylbis(ethane-2,1-diyl))bis(3-(3-chloro-4-hydroxyphenyl)-2-(hydroxyimino)propanamide) [Compound 13] | 7.70 | 6.77 | 6.96 | 8.00 |  |  |  |  |  |  |  |
| (2E,2′E)-N,N′-(diselenediylbis(ethane-2,1-diyl))bis(3-(3-fluoro-4-hydroxyphenyl)-2-(hydroxyimino)propanamide) [Compound 14] | 7.70 | 6.72 | 6.89 | 7.70 |  |  |  |  |  |  |  |
| (2E,2′E)-N,N′-(diselenediylbis(ethane-2,1-diyl))bis(3-(4-benzyloxy)phenyl)-2-(hydroxyimino)propanamide) [Compound 10] | 6.85 | 6.85 | 6.55 | 6.39 | excellent | 7.00 |  |  |  |  |  |
| (2E,2′E)-N,N′-(diselenediylbis(ethane-2,1-diyl))bis(3-(4-chlorophenyl)-2-(hydroxyimino)propanamide) [Compound 6] | 6.60 | 6.48 | 6.48 | 6.66 |  | 6.55 |  |  |  |  |  |
| (2E,2′E)-N,N′-(diselenediylbis(ethane-2,1-diyl))bis(3-(4-ethoxyphenyl)-2-(hydroxyimino)propanamide) [Compound 9] | 7.30 | 6.70 | 6.74 | 7.52 | excellent | 7.15 |  |  |  |  |  |
| (2E,2′E)-N,N′-(diselenediylbis(ethane-2,1-diyl))bis(3-(4-tert-butyl)phenyl)-2-(hydroxyimino)propanamide) [Compound 12] | 7.00 | 7.00 | 6.72 | 6.55 | excellent | 6.89 |  |  |  |  |  |
